The text below walks through data of patent US12643910B2, “Substituted pyrazolo[3,4-b]pyridines as ectonucleotide pyrophosphatase/phosphodiesterase 1 (ENPP1) modulators” (SANFORD BURNHAM PREBYS MEDICAL DISCOVERY INSTITUTE, priority 2019, dated 2026).

In assay [1] the target is T1, human ENPP1 (Homo sapiens, UniProt P22413).
T1 construct: made in house
T1 sequence (P22413 1-925): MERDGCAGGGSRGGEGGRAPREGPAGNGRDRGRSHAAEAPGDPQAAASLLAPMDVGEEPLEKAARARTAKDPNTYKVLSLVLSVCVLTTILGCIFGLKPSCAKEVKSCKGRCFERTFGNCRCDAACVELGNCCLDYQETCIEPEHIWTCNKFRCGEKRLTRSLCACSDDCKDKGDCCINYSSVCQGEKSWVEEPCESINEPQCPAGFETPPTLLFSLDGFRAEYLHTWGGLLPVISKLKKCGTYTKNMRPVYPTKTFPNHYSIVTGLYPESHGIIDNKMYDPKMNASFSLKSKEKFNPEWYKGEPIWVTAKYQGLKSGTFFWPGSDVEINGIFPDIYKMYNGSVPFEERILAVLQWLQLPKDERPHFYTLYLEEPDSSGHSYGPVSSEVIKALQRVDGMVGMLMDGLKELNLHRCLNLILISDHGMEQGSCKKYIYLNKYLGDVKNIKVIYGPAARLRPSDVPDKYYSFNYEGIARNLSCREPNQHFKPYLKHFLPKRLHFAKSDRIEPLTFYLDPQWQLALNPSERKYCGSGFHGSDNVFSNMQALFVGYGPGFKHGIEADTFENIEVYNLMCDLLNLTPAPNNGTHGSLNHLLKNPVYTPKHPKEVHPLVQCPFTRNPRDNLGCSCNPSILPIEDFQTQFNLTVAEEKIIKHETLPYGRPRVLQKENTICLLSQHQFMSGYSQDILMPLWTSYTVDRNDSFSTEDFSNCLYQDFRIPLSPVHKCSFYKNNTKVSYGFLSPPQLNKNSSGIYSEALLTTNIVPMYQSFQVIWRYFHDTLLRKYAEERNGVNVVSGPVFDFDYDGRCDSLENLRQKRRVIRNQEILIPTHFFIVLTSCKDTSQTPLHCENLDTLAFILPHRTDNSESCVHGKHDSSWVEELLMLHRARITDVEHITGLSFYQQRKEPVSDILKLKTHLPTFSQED
The experiment in a line: ENPP1 assay with ATP substrate (Transcreener AMP2/GMP2 TR-FRET). The class given is biochemical. The settings on record: 1 hour at room temperature. The procedure, abridged:
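5′-AMP from ATP hydrolysis (300 nM ATP stock added; enzyme added as 8.5 μM stock) detected by competitive TR-FRET. Buffer: 50 mM Tris pH 7.5, 1 mM TCEP, 2 mM MgCl2, 0.005% Tween 20, 1% DMSO. Reaction 1 h at room temperature, EDTA stop. IC50 from 2-parameter variable-slope fit.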

Assay [2] deals with T2, ENPP3 (Homo sapiens, UniProt O14638).
T2 sequence (O14638 1-875): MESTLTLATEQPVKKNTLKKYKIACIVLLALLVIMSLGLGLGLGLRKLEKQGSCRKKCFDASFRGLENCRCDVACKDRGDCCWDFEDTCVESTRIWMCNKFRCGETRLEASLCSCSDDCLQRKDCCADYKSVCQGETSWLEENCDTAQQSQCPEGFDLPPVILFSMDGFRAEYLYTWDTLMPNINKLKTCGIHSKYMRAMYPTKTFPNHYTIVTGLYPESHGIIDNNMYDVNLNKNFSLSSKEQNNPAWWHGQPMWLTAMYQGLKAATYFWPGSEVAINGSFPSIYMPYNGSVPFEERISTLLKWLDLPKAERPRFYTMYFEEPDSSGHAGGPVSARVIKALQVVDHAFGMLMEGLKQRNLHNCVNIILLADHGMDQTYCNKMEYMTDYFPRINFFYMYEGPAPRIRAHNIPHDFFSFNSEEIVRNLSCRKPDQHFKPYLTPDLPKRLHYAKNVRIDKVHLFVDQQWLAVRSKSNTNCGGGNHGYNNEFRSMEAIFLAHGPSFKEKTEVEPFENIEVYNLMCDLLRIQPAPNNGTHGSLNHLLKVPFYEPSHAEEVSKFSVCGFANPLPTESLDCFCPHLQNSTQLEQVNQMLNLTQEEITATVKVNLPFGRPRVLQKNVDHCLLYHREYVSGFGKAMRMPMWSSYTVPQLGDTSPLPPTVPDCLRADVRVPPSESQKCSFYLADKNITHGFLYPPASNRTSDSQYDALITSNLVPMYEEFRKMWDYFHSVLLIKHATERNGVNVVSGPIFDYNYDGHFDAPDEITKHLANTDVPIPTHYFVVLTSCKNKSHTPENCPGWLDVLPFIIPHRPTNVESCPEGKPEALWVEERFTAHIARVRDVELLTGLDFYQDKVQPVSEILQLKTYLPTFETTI
Put plainly: ENPP3 Km ATP assay. The settings on record: ATP at Km. The assay is classed as biochemical.

With `CNc1nc(NCc2ccc(S(N)(=O)=O)cc2)c2c(-c3ccccc3)csc2n1` [Example 1.42, 4-(((2-(Methylamino)-5-phenylthieno[2,3-d]pyrimidin-4-yl)amino)methyl)-benzenesulfonamide], the IC50 in assay [1] and in assay [2] was under 0.1 µM in each case.
Regarding `CN(C)c1nc(NCc2ccc(S(N)(=O)=O)cc2)c2c(-c3ccccc3)csc2n1` [Example 1.43, 4-(((2-(Dimethylamino)-5-phenylthieno[2,3-d]pyrimidin-4-yl)amino)methyl)-benzenesulfonamide], the IC50 in assay [1] is under 0.1 µM; in assay [2], 0.1 to 1 µM.
As for `Cc1nc(NCc2ccc(S(N)(=O)=O)cc2)c2c(-c3ccccc3)csc2n1` [Example 1.44, 4-(((2-Methyl-5-phenylthieno[2,3-d]pyrimidin-4-yl)amino)methyl)benzenesulfonamide], the IC50 in assay [1] and in assay [2] was under 0.1 µM throughout.
Take `Cc1nc(NCc2ccc(S(N)(=O)=O)s2)c2c(-c3ccccc3)csc2n1` [Example 1.45, 5-(((2-Methyl-5-phenylthieno[2,3-d]pyrimidin-4-yl)amino)methyl)thiophene-2-sulfonamide]: the IC50 in assay [1] and in assay [2] was over 20 µM each time.
Regarding `NS(=O)(=O)c1ccc(CNc2ncnc3scc(-c4ccccc4)c23)cc1` [Example 1.46, 4-(((5-Phenylthieno[2,3-d]pyrimidin-4-yl)amino)methyl)benzenesulfonamide], the IC50 in assay [1] and in assay [2] was under 0.1 µM in each case.
As to `NS(=O)(=O)c1ccc(CNc2cc(-c3ccccn3)nc3scc(-c4ccccc4)c23)cc1` [Example 1.47, 4-(((3-Phenyl-6-(pyridin-2-yl)thieno[2,3-b]pyridin-4-yl)amino)methyl)benzenesulfonamide], the IC50 in assay [1] is under 0.1 µM; in assay [2] it was 1 to 20 µM.
For `NS(=O)(=O)c1ccc(CNc2ncnc3scc(Br)c23)cc1` [Example 1.49, 4-((5-Bromothieno[2,3-d]pyrimidin-4-yl)aminomethyl)benzenesulfonamide], in that order: 0.1 to 1 µM and under 0.1 µM.
For `NS(=O)(=O)c1ccc(CNc2nc(NCCO)nc3scc(-c4ccccc4)c23)cc1` [Example 1.50, 4-((2-(2-Hydroxyethylamino)-5-phenylthieno[2,3-d]pyrimidin-4-yl)aminomethyl)-benzenesulfonamide] the same measures were under 0.1 µM and under 0.1 µM.
Regarding `NS(=O)(=O)c1ccc(CNc2nc(NCCCO)nc3scc(-c4ccccc4)c23)cc1` [Example 1.51, 4-((2-(3-Hydroxypropyl)amino-5-phenylthieno[2,3-d]pyrimidin-4-yl)aminomethyl)-benzenesulfonamide], the IC50 in assay [1] and in assay [2] was under 0.1 µM in each case.
Take `CCN(CCO)c1nc(NCc2ccc(S(N)(=O)=O)cc2)c2c(-c3ccccc3)csc2n1` [Example 1.52, 4-((2-(N-Ethyl-N-(2-hydroxyethyl)amino)-5-phenylthieno[2,3-d]pyrimidin-4-yl)aminomethyl)-benzenesulfonamide]: the results for the IC50 in assay [1] and in assay [2] were under 0.1 µM and 0.1 to 1 µM, respectively.
For `CCN(c1nc(NCc2ccc(S(N)(=O)=O)cc2)c2c(-c3ccccc3)csc2n1)C(C)(C)CO` [Example 1.53, 4-((2-(N-Ethyl-N-(1-hydroxy-2-methylpropan-2-yl)amino)-5-phenylthieno[2,3-d]pyrimidin-4-yl)aminomethyl)benzenesulfonamide], in that order: 0.1 to 1 µM and 0.1 to 1 µM.
For `COCCNc1nc(NCc2ccc(S(N)(=O)=O)cc2)c2c(-c3ccccc3)csc2n1` [Example 1.54, 4-((2-(2-Methoxyethyl)amino-5-phenylthieno[2,3-d]pyrimidin-4-yl)aminomethyl)-benzenesulfonamide], in that order: under 0.1 µM and under 0.1 µM.
For `COCCN(C)c1nc(NCc2ccc(S(N)(=O)=O)cc2)c2c(-c3ccccc3)csc2n1` [Example 1.55, 4-((2-(N-Methyl-N-(2-methoxyethyl)amino)-5-phenylthieno[2,3-d]pyrimidin-4-yl)aminomethyl)benzenesulfonamide] the same measures were under 0.1 µM and 0.1 to 1 µM.
With `COCCCNc1nc(NCc2ccc(S(N)(=O)=O)cc2)c2c(-c3ccccc3)csc2n1` [Example 1.56, 4-((2-(3-Methoxypropyl)amino-5-phenylthieno[2,3-d]pyrimidin-4-yl)aminomethyl)-benzenesulfonamide], the IC50 in assay [1] and in assay [2] was under 0.1 µM throughout.
With `Nc1nc(NCc2ccc(S(N)(=O)=O)cc2)c2c(-c3ccccc3)csc2n1` [Example 1.57, 4-((2-Amino-5-phenylthieno[2,3-d]pyrimidin-4-yl)aminomethyl)benzenesulfonamide], the values for the half-inhibitory concentration (IC50) in assay [1] and in assay [2] were under 0.1 µM and 0.1 to 1 µM, respectively.
For `CN(C)CCN(C)c1nc(NCc2ccc(S(N)(=O)=O)cc2)c2c(-c3ccccc3)csc2n1` [Example 1.58, 4-((2-((N-2-(Dimethylamino)ethyl)-N-methylamino)-5-phenylthieno[2,3-d]pyrimidin-4-yl)aminomethyl)benzenesulfonamide], in that order: under 0.1 µM and under 0.1 µM.
For `CN(C)CCCNc1nc(NCc2ccc(S(N)(=O)=O)cc2)c2c(-c3ccccc3)csc2n1` [Example 1.59, 4-((2-(3-Dimethylaminopropyl)amino-5-phenylthieno[2,3-d]pyrimidin-4-yl)aminomethyl)-benzenesulfonamide] the same measures were under 0.1 µM and under 0.1 µM.
For `CN(C)CCNc1nc(NCc2ccc(S(N)(=O)=O)cc2)c2c(-c3ccccc3)csc2n1` [Example 1.60, 4-((2-(2-Dimethylamino)ethylamino-5-phenylthieno[2,3-d]pyrimidin-4-yl)aminomethyl)-benzenesulfonamide], in that order: under 0.1 µM and under 0.1 µM.
Consider `Cc1nc(NCc2ccc(S(N)(=O)=O)cc2)c2c3c(sc2n1)CCCC3` [Example 1.64, 4-((2-Methyl-5,6,7,8-tetrahydro[1]benzothieno[2,3-d]pyrimidin-4-yl)aminomethyl)-benzenesulfonamide], for which the concentration for half-maximal inhibition (IC50) is over 20 µM in assay [1] and 1 to 20 µM in assay [2].
For `CC(Nc1ncnc2scc(-c3ccccc3)c12)c1ccc(S(N)(=O)=O)cc1` (centres unmarked) [Example 1.65, 4-(1-(5-Phenylthieno[2,3-d]pyrimidin-4-yl)aminoethyl)benzenesulfonamide] the same measures were 1 to 20 µM and 1 to 20 µM.
With `NS(=O)(=O)N1CCC(CNc2ncnc3scc(-c4ccccc4)c23)CC1` [Example 1.66, 4-(5-Phenylthieno[2,3-d]pyrimidin-4-yl)aminomethyl-1-piperidinesulfonamide], the IC50 lay in the range of 0.1 to 1 µM in assay [1] and 1 to 20 µM in assay [2].
For `NS(=O)(=O)N1CCC(CNc2nc(-c3ccccn3)nc3scc(-c4ccccc4)c23)CC1` [Example 1.67, 4-((5-Phenyl-2-(2-pyridyl)thieno[2,3-d]pyrimidin-4-yl)aminomethyl)-1-piperidinesulfonamide] the same measures were 0.1 to 1 µM and 1 to 20 µM.
